We go through one compound from patent publication US9234046B2, “Treatment of renal disease” (OPSONA Therapeutics Ltd, priority 2007, dated 2016).

Assay [1] deals with C57BL/6 mice. The assay is described as follows: Nephrotoxic serum + Pam3CysSK4 glomerular inflammation model, 2 hours: glomerular neutrophils and circulating leukocytes. To be noted: individual mice; 2 hours after disease induction; 50 glomerular cross sections counted. The format is in vivo. As to the method: (§1) Methods for generating nephrotoxic antibody, blood counts, processing histology, assessment of histology are disclosed in Brown H J, Lock, H R, Sacks S H, Robson M G TLR2 stimulation of intrinsic kidney cells in the induction of immune mediated glomerulonephritis, J Immunol 2006, 177(3):1925-1931, the contents of which are incorporated herein by reference. These methods were followed in the performance of the present example.
(§2) The glomerular histology was assessed at 2 hours and 24 hours following disease induction with NTS. Kidneys were fixed in Bouin's solution and stained with periodic acid-Schiff reagent. At 2 hours, the number of neutrophils (identified by their characteristic nuclear morphology) per 50 glomerular cross sections was counted. At 24 hours, the amount of glomerular thrombosis was assessed by identification of the amount of periodic acid-Schiff-positive material. In total, 50 glomeruli were assessed for each animal for signs of glomerular thrombosis, and a score was assigned as follows: grade 0, no periodic acid-Schiff-positive material; grade 1, <25%; grade 2, 25-50%; grade 3, 50-75%; grade 4, 75-100%. All sections scored for neutrophils and glomerular thrombosis were done so blindly.
200 ul of nephrotoxic serum containing 10 ug of the lipopetide Pam3CysSK4 (EMC microcollections) was given intravenously via the tail vein. […]

Assay [2] has as its system C57BL/6 mice. The assay is described as follows: Nephrotoxic serum + Pam3CysSK4 glomerular inflammation model, 24 hours: albuminuria and glomerular thrombosis. It counts as in vivo. On the procedure: as §1
Kidney samples were fixed for 4 hours in Bouin's solution, transferred into formalin, then processed and embedded in paraffin. Sections were cut at 0.5 μm thickness and stained with periodic acid-Schiff (PAS) reagent. All samples then were assessed blindly for glomerular thrombosis by identification of the amount of PAS-positive material. In total, 50 glomeruli were assessed for each mouse for signs of glomerular thrombosis, and a score was assigned to each as follows: Grade 0, no PAS-positive material; grade 1, […]; grade 2, 25 to 50%, grade 3, 50 to 75%, and grade 4, 75 to 100%. The average glomerular thrombosis score for each mouse then was calculated. Sections also were assessed blindly for glomerular crescents. A total of 50 glomeruli were assessed, and the number of crescents (two or more layers of cells in Bowman's space) was expressed as a percentage.
as §2
Mice were housed in metabolic cages for 24 hours for urine collections. The urine albumin concentration was measured by radial immunodiffusion. The sensitivity of the radial immunodiffusion assay for albumin was 0.05 mg/ml. Urine samples were diluted to 1:40 so that values fell on the standard curve.
200 ul of nephrotoxic serum containing 10 ug of the lipopetide Pam3CysSK4 (EMC microcollections) was given intravenously via the tail vein. 2 hours prior to this, mice were treated as follows. […]
The above groups were place in metabolic cages immediately after induction of disease and exsanguinated under anaesthesia 24 hours later. […] Albuminuria and thrombosis data was analysed after a logarithmic transformation.

Setting [3] is: 24 hours, versus other treatment groups.

Several values for one entry are separate records, joined by “and”; a condition that tells them apart may be missing. Equal values may be shown once.

Consider `C[C@]12C=CC(=O)C=C1CC[C@@H]1[C@@H]2C(=O)C[C@@]2(C)[C@H]1CC[C@]2(O)C(=O)CO` [Prednisone], for which, in assay [1], the “pmn/glom (neutrophils per glomerular cross section)” value was 0.54 pmn/glom and 0.28 pmn/glom and 0.42 pmn/glom and 0.24 pmn/glom and 0.34 pmn/glom. Also, in assay [2] (setting [3]), the “albuminuria, in words” value is “did not reach significance” and the “glomerular thrombosis, in words” value is reported as “significantly less thrombosis than PBS but not control antibody treated mice”. In assay [2] (individual mice, 24 hour urine collection, radial immunodiffusion), the “alb, mg/ml (albuminuria)” value was 2.54 mg/mL and 4.54 mg/mL and 4.71 mg/mL and 4.98 mg/mL. Further, the “Thromb/50 gloms (glomeruli showing any thrombosis out of a total of 50)” value in assay [2] (individual mice, 24 hours after disease induction, treated 2 hours before) was 7 /50 gloms (3×) and 3 /50 gloms.
